# Target: T1, Dual specificity protein kinase TTK (Homo sapiens, UniProt P33981)
# T1 sequence (P33981 whole entry): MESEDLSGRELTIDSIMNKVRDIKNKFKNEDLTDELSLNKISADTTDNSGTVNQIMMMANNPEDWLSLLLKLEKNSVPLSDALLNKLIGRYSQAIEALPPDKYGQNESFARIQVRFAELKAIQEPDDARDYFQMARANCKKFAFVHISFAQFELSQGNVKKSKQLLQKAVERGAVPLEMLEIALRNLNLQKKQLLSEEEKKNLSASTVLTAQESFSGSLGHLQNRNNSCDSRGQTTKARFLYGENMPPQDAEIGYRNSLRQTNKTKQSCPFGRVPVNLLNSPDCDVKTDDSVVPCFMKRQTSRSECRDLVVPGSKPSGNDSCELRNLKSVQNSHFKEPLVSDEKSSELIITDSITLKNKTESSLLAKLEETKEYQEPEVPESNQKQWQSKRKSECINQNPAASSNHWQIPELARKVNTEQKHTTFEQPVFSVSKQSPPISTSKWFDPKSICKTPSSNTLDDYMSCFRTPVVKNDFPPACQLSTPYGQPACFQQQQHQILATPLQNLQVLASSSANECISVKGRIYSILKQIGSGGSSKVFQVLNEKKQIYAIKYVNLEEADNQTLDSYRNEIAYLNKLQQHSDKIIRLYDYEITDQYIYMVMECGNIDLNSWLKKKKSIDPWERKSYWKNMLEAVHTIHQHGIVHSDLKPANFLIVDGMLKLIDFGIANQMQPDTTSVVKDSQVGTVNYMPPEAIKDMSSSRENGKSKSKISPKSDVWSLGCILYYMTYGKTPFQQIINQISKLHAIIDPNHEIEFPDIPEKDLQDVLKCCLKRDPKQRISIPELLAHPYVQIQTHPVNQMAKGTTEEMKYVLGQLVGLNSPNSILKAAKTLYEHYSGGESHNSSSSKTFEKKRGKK
# Experiment: Measurement of Inhibition of MPS1 Kinase
# Method: The reaction was carried out for 60 min at room temperature and stopped by the addition of buffer (10 μl) containing 20 mM EDTA, 0.05% (v/v) Brij-35, in 0.1M HEPES-buffered saline (Free acid, Sigma, UK). […] The % inhibition of the compounds is calculated relative to the means of selected control wells. […] The % inhibitions at each concentration are then fitted to a 4 parameter logistic fit: y=(a+((b−a)/(1+((c/x^d)))) where a=asym min, b=asym max, c=IC50 and d=hill coefficient.
structure (smiles),measurement,value
"COc1cc(-c2nnc3n2CCN(C(=O)CC(C)(C)C)C3)ccc1Nc1cc2cc(-c3cnn(CC(C)(C)O)c3)ccc2cn1 [US10188642, Example 55]",IC50,3 nM

# Source: BindingDB's records for patent US10188642 (Cancer Research Technology Limited, 2019)
